Experimental data taken from paper PMC6123676, “Androgen receptor degradation by the proteolysis-targeting chimera ARCC-4 outperforms enzalutamide in cellular models of prostate cancer drug resistance” (Communications Biology, 2018).
Read-outs that look alike come from different tables or passages of the source.

Key:
androgen receptor [1] = molecular target: T1, androgen receptor (Homo sapiens, UniProt P10275); assay: PROTAC degradation of AR in VCaP cells, western blot (Dmax); type: cell-based; set-up: gene AR; endogenous AR in VCaP cells; with VHL
Target sequence in this assay (P40337 whole entry): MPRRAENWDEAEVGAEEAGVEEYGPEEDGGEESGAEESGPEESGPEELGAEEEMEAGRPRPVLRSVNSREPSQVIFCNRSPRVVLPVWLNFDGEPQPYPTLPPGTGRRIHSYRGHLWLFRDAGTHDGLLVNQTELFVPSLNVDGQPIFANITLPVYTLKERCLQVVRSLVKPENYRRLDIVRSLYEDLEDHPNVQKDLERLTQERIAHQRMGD
Target sequence in this assay (P10275 whole entry): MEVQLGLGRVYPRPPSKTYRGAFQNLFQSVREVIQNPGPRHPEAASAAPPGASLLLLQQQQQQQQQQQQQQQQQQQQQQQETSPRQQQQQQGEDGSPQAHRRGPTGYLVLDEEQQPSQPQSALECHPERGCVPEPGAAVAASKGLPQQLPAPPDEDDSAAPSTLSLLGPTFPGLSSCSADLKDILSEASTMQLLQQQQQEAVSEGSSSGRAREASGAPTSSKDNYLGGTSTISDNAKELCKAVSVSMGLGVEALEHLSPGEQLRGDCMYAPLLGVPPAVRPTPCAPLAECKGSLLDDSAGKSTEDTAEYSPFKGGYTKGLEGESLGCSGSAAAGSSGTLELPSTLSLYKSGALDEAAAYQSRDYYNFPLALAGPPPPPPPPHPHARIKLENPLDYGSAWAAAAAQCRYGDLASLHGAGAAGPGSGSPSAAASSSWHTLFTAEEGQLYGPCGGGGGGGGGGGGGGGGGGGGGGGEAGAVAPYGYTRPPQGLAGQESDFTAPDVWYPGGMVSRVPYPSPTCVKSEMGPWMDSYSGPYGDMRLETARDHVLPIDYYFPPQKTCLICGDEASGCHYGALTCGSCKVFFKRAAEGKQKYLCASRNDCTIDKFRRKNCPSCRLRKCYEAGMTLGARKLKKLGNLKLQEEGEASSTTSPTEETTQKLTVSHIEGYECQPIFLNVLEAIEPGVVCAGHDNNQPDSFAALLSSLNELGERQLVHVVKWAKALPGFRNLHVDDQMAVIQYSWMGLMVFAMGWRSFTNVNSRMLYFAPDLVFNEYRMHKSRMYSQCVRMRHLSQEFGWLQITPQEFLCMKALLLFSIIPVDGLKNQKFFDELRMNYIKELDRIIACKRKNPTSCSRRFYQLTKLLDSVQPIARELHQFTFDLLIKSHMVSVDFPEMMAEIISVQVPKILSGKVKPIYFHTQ

androgen receptor [2] = molecular target: T1, androgen receptor; assay: competition radioligand binding with [3H]R1881 (LNCaP cell lysate); set-up: gene AR; AR in LNCaP cell lysates
Target sequence in this assay (P10275 whole entry): as above

androgen receptor [3] = molecular target: T1, androgen receptor; assay: degradation of AR in VCaP cells, western blot (DC50; Dmax […]); type: cell-based; set-up: gene AR; endogenous AR in VCaP cells
Target sequence in this assay (P10275 whole entry): as above

von Hippel-Lindau (VHL) = molecular target: T2, von Hippel-Lindau (VHL) (Homo sapiens, UniProt P40337); assay: AR degradation lost on VHL knockdown and with the non-VHL-binding epimer; type: cell-based
T2 construct: endogenous VHL in VCaP cells; with androgen receptor
T2 sequence (P10275 whole entry): as above
T2 sequence (P40337 whole entry): as the sequence (P40337 whole entry) above

androgen receptor [4] = molecular target: T1, androgen receptor; set-up: gene AR
Target sequence in this assay (P10275 whole entry): as the sequence (P10275 whole entry) above

Q: `Cc1ncsc1-c1ccc(CNC(=O)[C@@H]2C[C@@H](O)CN2C(=O)[C@@H](NC(=O)COCCOCCOCCOc2ccc(N3C(=S)N(c4ccc(C#N)c(C(F)(F)F)c4)C(=O)C3(C)C)cc2)C(C)(C)C)cc1` [2a] was tested. Which Dmax (androgen receptor [1]) did it give?
A: 47%

Q: With `Cc1ncsc1-c1ccc(CNC(=O)[C@@H]2C[C@H](O)CN2C(=O)[C@@H](NC(=O)COCCCCOc2ccc(-c3ccc(N4C(=S)N(c5ccc(C#N)c(C(F)(F)F)c5)C(=O)C4(C)C)cc3)cc2)C(C)(C)C)cc1` (mixture of isomers) [compound 3, epimer] as the compound, how does the IC50 (androgen receptor [2]) read?
A: 41 nM

Q: `CC1(C)C(=O)N(c2ccc(C#N)c(C(F)(F)F)c2)C(=S)N1CCCC(=O)NCCOCCOC(=O)CC12CC3CC(CC(C3)C1)C2` [SARD279] was tested. Which DC50 (androgen receptor [3]) did it give?
A: 1100 nM

Q: What does the source list for `Cc1ncsc1-c1ccc(CNC(=O)[C@@H]2C[C@@H](O)CN2C(=O)[C@@H](NC(=O)COCCCCOc2ccc(-c3ccc(N4C(=S)N(c5ccc(C#N)c(C(F)(F)F)c5)C(=O)C4(C)C)cc3)cc2)C(C)(C)C)cc1` [2c, ARCC-4]?
A: AR degradation lost on VHL knockdown and with the non-VHL-binding epimer (von Hippel-Lindau (VHL)): confirmed that ARCC-4-mediated AR degradation is dependent upon VHL recruitment and binding; IC50 (androgen receptor [2]; read-out: IC50): 36 nM

Q: How did the “radioligand of the AR binding assay; also out-competes ARCC-4 in VCaP cells” value (androgen receptor [4]) turn out when `C[C@]1(O)CC[C@H]2[C@@H]3CCC4=CC(=O)CCC4=C3C=C[C@@]21C` [R1881] was run?
A: AR radioligand binding assay to determine the IC50 values for inhibiting binding between AR and (^3H) R1881
